Data on 13 compounds can be found in US20250263385A1 (SANOFI, priority 2022, published 2025).

For this assay, the system named is Human erythropoietin (hEPO) levels in sera. The assay is described as follows: Delivery of hEPO mRNA by intramuscular administration of lipid nanoparticles; serum hEPO by ELISA. Type of assay: in vivo, Mouse (female BALB/cJ). The following applies: single IM injection of 0.1 μg hEPO mRNA LNP in 30 μL into right gastrocnemius, female BALB/cJ mice, cationic lipids in formulation 1, MC3 in formulation 2; for hEPO 6 Hr (ng/mL) Mean: 6 hours post dose; for hEPO 24 Hr (ng/mL) Mean: 24 hours post dose. The protocol: Lipid nanoparticle formulations of Table 3 were prepared by Process A. All of the lipid nanoparticle formulations comprised hEPO mRNA and the different lipids (Cationic Lipid: DMG-PEG2000: Cholesterol: DOPE/DSPC) in the mol % ratios specified in Table 3.
The cationic lipids of the present invention were evaluated with lipid nanoparticle formulation 1. MC3 was evaluated with lipid nanoparticle formulation 2, which is a typical MC3 formulation.
In summary, lipid screening studies were conducted with female BALB/cJ mice 6-8 weeks of age. Mice were dosed with 0.1 μg in 30 μL of LNPs by a single intramuscular (IM) injection into the gastrocnemius leg muscle. Blood samples were taken 6 and 24 hours post injection and hEPO levels were measured in the blood serum of the mice using an ELISA assay according to the manufacture's protocol. WO2022/099003 A1 also describes an in vivo assay for intramuscular administration (e.g. on page 46, paragraph [00206]).
Treatment Regimen: On Day 1, animals from Groups 1-13 were dosed via intramuscular injection while under light isoflurane anesthesia according to the study design table above. Animals in Groups 1-13 were injected with EPO mRNA LNPs in the right leg only. Group 1 animals received MC3 control. The cationic lipid MC3 is the current gold standard for in vivo delivery of e.g. siRNA (see WO2010/144740).
Interim Sample Collections: Interim whole blood (^˜50 μL) was collected by tail snip or saphenous vein at 6 and 24 hours post dose administration (±5%). Blood samples were collected into serum separator tubes, allowed to clot at room temperature for at least 10 minutes, centrifuged at ambient temperature at minimum 1000 g for 10 minutes and the serum was extracted. All serum samples were stored at nominally −70° C. until analysis hEPO by the Testing Facility. The results of the EPO analysis were included in the Data Submission.
Terminal Blood Collections: Whole blood was collected via cardiac puncture into serum separator tube, allowed to clot at room temperature for at least 10 minutes, centrifuged at ambient temperature at minimum 1000 g for 10 minutes and the serum was extracted. Serum samples were stored at nominally −70° C. until analyzed for hEPO by the Test Facility.
ELISA Assay: Human erythropoietin (hEPO) levels in sera samples were determined by ELISA kit (R&D systems, Cat #DEP-00) according to the manufactory instruction and the results were included in the Data Submission. The “shaker” protocol was used. The serum samples were diluted between 1:40 and 1:100.

With `CCCCOC(=O)CCCCCCC(O)CN(CCCSSCCN1CCN(CCOC(=O)CCCCN(CC(O)CCCCCCC(=O)OCC(CC)CC)CC(O)CCCCCCC(=O)OCC(CC)CC)CC1)CC(O)CCCCCCC(=O)OCCCC` (centres unmarked) [Compound 6, Dibutyl 9,9′-((3-((2-(4-(2-((5-(bis(9-(2-ethylbutoxy)-2-hydroxy-9-oxononyl)amino)-pentanoyl)oxy)ethyl)piperazin-1-yl)ethyl)disulfaneyl)propyl)azanediyl)bis(8-hydroxynonanoate)], the “hEPO 6 Hr (ng/mL) Mean” value is recorded as 8.72 ng/mL and the “hEPO 24 Hr (ng/mL) Mean” value amounted to 8.90 ng/mL.

`CCCCOC(=O)CCCCCCC(O)CN(CCCCSSCCN1CCN(CCOC(=O)CCCCN(CC(O)CCCCCCC(=O)OCC(CC)CC)CC(O)CCCCCCC(=O)OCC(CC)CC)CC1)CC(O)CCCCCCC(=O)OCCCC` (centres unmarked) [Compound 12]: the “hEPO 6 Hr (ng/mL) Mean” value was 8.06 ng/mL and the “hEPO 24 Hr (ng/mL) Mean” value is listed as 4.86 ng/mL.

Consider `CCC(CC)COC(=O)CCCCCCC(O)CN(CCCC(=O)OCCN1CCN(CCSSCCCN(CC(O)CCCCCCC(=O)OCCC(C)C)CC(O)CCCCCCC(=O)OCCC(C)C)CC1)CC(O)CCCCCCC(=O)OCC(CC)CC` (centres unmarked) [Compound 29, Bis(2-ethylbutyl) 9,9′-((4-(2-(4-(2-((3-(bis(2-hydroxy-9-(isopentyloxy)-9-oxononyl)-amino)propyl)disulfaneyl)ethyl)piperazin-1-yl)ethoxy)-4-oxobutyl)azanediyl)bis(8-hydroxynonanoate)], for which the “hEPO 6 Hr (ng/mL) Mean” value amounted to 10.01 ng/mL and the “hEPO 24 Hr (ng/mL) Mean” value turned out to be 4.93 ng/mL.

Take `CCCCOC(=O)CCCCCCC(O)CN(CCCC(=O)OCCN1CCN(CCSSCCCN(CC(O)CCCCCCC(=O)OCC(CC)CC)CC(O)CCCCCCC(=O)OCC(CC)CC)CC1)CC(O)CCCCCCC(=O)OCCCC` (centres unmarked) [Compound 42, Dibutyl 9,9′-((5-(2-(4-(2-((4-(bis(9-(2-ethylbutoxy)-2-hydroxy-9-oxononyl)amino)propyl)disulfaneyl)ethyl)piperazin-1-yl)ethoxy)-4-oxobutyl)azanediyl)bis(8-hydroxynonanoate)]: the “hEPO 6 Hr (ng/mL) Mean” value was 9.07 ng/mL and the “hEPO 24 Hr (ng/mL) Mean” value is recorded as 3.06 ng/mL.

With `CCC(CC)COC(=O)CCCCCCC(O)CN(CCCSSCCN1CCN(CCOC(=O)CCCN(CC(O)CCCCC(=O)OCCC(C)C)CC(O)CCCCC(=O)OCCC(C)C)CC1)CC(O)CCCCCCC(=O)OCC(CC)CC` (centres unmarked) [Compound 45, Bis(2-ethylbutyl) 9,9′-((3-((2-(4-(2-((4-(bis(2-hydroxy-7-(isopentyloxy)-7-oxoheptyl)amino)-butanoyl)oxy)ethyl)piperazin-1-yl)ethyl)disulfaneyl)propyl)azanediyl)bis(8-hydroxynonanoate)], the “hEPO 6 Hr (ng/mL) Mean” value was 8.33 ng/mL and the “hEPO 24 Hr (ng/mL) Mean” value is listed as 3.99 ng/mL.

For `CCC(CC)COC(=O)CCCCCCC(O)CN(CCCSSCCN1CCN(CCOC(=O)CCCN(CC(O)CCCC(=O)OC(CC)CC)CC(O)CCCC(=O)OC(CC)CC)CC1)CC(O)CCCCCCC(=O)OCC(CC)CC` (centres unmarked) [Compound 46, Bis(2-ethylbutyl) 9,9′-((3-((2-(4-(2-((4-(bis(2-hydroxy-6-oxo-6-(pentan-3-yloxy)hexyl)-amino)butanoyl)oxy)ethyl)piperazin-1-yl)ethyl)disulfaneyl)propyl)azanediyl)bis(8-hydroxynonanoate)], the “hEPO 6 Hr (ng/mL) Mean” value was found to be 12.38 ng/mL and the “hEPO 24 Hr (ng/mL) Mean” value was 5.78 ng/mL.

With `CCC(CC)COC(=O)CCCCCCC(O)CN(CCCC(=O)OCCN1CCN(CCSSCCCCN(CC(O)CCCCC(=O)OCC(CC)CC)CC(O)CCCCC(=O)OCC(CC)CC)CC1)CC(O)CCCCCCC(=O)OCC(CC)CC` (centres unmarked) [Compound 50, Bis(2-ethylbutyl) 9,9′-((4-(2-(4-(2-((4-(bis(7-(2-ethylbutoxy)-2-hydroxy-7-oxoheptyl)amino)-butyl)disulfaneyl)ethyl)piperazin-1-yl)ethoxy)-4-oxobutyl)azanediyl)bis(8-hydroxynonanoate)], the “hEPO 6 Hr (ng/mL) Mean” value is listed as 14.94 ng/mL and the “hEPO 24 Hr (ng/mL) Mean” value worked out at 8.87 ng/mL.

Regarding `CCC(CC)COC(=O)CCCCCCC(O)CN(CCCCC(=O)OCCN1CCN(CCSSCCCCN(CC(O)CCCCC(=O)OCC(CC)CC)CC(O)CCCCC(=O)OCC(CC)CC)CC1)CC(O)CCCCCCC(=O)OCC(CC)CC` (centres unmarked) [Compound 51, Bis(2-ethylbutyl) 9,9′-((5-(2-(4-(2-((4-(bis(7-(2-ethylbutoxy)-2-hydroxy-7-oxoheptyl)amino)-butyl)disulfaneyl)ethyl)piperazin-1-yl)ethoxy)-5-oxopentyl)azanediyl)bis(8-hydroxynonanoate)], the “hEPO 6 Hr (ng/mL) Mean” value is recorded as 16.39 ng/mL and the “hEPO 24 Hr (ng/mL) Mean” value is 9.03 ng/mL.

Turning to `CCCCOC(=O)CCCCCCC(O)CN(CCCCC(=O)OCCN1CCN(CCSSCCCCN(CC(O)CCCCCCC(=O)OCC(CC)CC)CC(O)CCCCCCC(=O)OCC(CC)CC)CC1)CC(O)CCCCCCC(=O)OCCCC` (centres unmarked) [Compound 53, Dibutyl 9,9′-((5-(2-(4-(2-((4-(bis(9-(2-ethylbutoxy)-2-hydroxy-9-oxononyl)amino)-butyl)disulfaneyl)ethyl)piperazin-1-yl)ethoxy)-5-oxopentyl)azanediyl)bis(8-hydroxynonanoate)], the “hEPO 6 Hr (ng/mL) Mean” value is 9.07 ng/mL and the “hEPO 24 Hr (ng/mL) Mean” value is 4.66 ng/mL.

For the compound `CCC(CC)COC(=O)CCCCCCC(O)CN(CCCCSSCCN1CCN(CCOC(=O)CCCN(CC(O)CCCCC(=O)OCC(CC)CC)CC(O)CCCCC(=O)OCC(CC)CC)CC1)CC(O)CCCCCCC(=O)OCC(CC)CC` (centres unmarked) [Compound 57, Bis(2-ethylbutyl) 9,9′-((4-((2-(4-(2-((4-(bis(7-(2-ethylbutoxy)-2-hydroxy-7-oxoheptyl)amino)butanoyl)oxy)ethyl)piperazin-1-yl)ethyl)disulfaneyl)butyl)azanediyl)bis(8-hydroxynonanoate)], the “hEPO 6 Hr (ng/mL) Mean” value came out at 13.33 ng/mL and the “hEPO 24 Hr (ng/mL) Mean” value is reported as 8.19 ng/mL.

In the case of `CCCCOC(=O)CCCCCCC(O)CN(CCCCC(=O)OCCN1CCN(CCSSCCCN(CC(O)CCCCC(=O)OC(C)C)CC(O)CCCCC(=O)OC(C)C)CC1)CC(O)CCCCCCC(=O)OCCCC` (centres unmarked) [Compound 78], the “hEPO 6 Hr (ng/mL) Mean” value was 7.05 ng/mL and the “hEPO 24 Hr (ng/mL) Mean” value came out at 3.30 ng/mL.

As for `CCC(CC)COC(=O)CCCCC(O)CN(CCCSSCCN1CCN(CCOC(=O)CCCN(CC(O)CCCCC(=O)OCC(CC)CC)CC(O)CCCCC(=O)OCC(CC)CC)CC1)CC(O)CCCCC(=O)OCC(CC)CC` (centres unmarked) [Compound 92, Bis(2-ethylbutyl) 7,7′-((3-((2-(4-(2-((4-(bis(7-(2-ethylbutoxy)-2-hydroxy-7-oxoheptyl)amino)butanoyl)oxy)ethyl)piperazin-1-yl)ethyl)disulfaneyl)propyl)azanediyl)bis(6-hydroxyheptanoate)], the “hEPO 6 Hr (ng/mL) Mean” value is given as 13.11 ng/mL and the “hEPO 24 Hr (ng/mL) Mean” value is 5.75 ng/mL.

As to `CCCCC/C=C\C/C=C\CCCCCCCCC(CCCCCCCC/C=C\C/C=C\CCCCC)OC(=O)CCCN(C)C` [MC3, reference compound], the “hEPO 6 Hr (ng/mL) Mean” value is 3.94 ng/mL and the “hEPO 24 Hr (ng/mL) Mean” value was determined as 2.44 ng/mL.
